Results taken from publication PMC4349132 (Medchemcomm, 2014).

Columns and labels:
[1] = Henderson–Hasselbalch equation, assay conditions pH 8
[2] = target: GLP (G9a-like protein, EHMT1) (Homo sapiens, UniProt Q9H9B1); settings: compared with G9a
G9a = G9a (Homo sapiens, UniProt Q96KQ7); settings: SPA assay
[3] = test system: all other methyltransferases in the panel; settings: panel other than G9a, GLP, SETD2, EZH2
SETD2 = SETD2 (Homo sapiens, UniProt Q9BYW2); settings: at the highest concentrations surveyed (50 μM)
EZH2 = EZH2 (Homo sapiens, UniProt Q15910); settings: at the highest concentrations surveyed (50 μM)
Sequence of EZH2 (Q15910 whole entry, species assumed): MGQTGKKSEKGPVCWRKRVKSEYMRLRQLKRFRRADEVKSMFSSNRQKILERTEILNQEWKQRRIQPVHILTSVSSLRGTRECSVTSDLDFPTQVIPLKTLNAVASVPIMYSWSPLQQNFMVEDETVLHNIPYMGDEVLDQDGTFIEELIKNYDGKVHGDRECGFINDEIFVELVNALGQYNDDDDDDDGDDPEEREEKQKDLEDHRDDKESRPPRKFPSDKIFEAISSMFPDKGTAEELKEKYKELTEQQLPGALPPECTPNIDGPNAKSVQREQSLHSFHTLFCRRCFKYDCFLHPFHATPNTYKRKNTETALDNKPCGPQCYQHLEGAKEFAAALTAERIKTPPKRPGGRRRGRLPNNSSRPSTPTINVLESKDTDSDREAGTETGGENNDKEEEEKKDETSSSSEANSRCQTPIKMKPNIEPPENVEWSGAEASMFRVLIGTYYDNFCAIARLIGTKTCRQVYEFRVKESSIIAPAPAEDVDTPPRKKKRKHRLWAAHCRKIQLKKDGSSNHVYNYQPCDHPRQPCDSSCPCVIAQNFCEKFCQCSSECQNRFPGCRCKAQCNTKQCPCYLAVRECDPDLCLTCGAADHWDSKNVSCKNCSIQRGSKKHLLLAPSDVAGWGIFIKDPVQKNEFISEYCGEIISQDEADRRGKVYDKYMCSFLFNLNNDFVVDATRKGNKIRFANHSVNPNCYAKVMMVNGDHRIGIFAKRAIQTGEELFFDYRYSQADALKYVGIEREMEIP
Sequence of EZH2 (O75530 whole entry partner, species assumed): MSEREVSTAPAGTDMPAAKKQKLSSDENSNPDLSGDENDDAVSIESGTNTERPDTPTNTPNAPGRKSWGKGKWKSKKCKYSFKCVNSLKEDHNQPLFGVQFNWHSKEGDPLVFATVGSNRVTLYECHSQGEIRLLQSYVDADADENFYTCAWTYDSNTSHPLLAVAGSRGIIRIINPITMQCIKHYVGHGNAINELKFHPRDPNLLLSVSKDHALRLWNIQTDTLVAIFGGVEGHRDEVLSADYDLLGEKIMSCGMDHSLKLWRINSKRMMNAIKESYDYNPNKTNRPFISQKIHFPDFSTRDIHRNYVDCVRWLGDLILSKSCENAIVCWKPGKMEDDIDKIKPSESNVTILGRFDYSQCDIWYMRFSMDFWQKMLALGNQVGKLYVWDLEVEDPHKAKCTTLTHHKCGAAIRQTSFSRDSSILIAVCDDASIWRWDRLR
Sequence of EZH2 (Q15022 whole entry partner, species assumed): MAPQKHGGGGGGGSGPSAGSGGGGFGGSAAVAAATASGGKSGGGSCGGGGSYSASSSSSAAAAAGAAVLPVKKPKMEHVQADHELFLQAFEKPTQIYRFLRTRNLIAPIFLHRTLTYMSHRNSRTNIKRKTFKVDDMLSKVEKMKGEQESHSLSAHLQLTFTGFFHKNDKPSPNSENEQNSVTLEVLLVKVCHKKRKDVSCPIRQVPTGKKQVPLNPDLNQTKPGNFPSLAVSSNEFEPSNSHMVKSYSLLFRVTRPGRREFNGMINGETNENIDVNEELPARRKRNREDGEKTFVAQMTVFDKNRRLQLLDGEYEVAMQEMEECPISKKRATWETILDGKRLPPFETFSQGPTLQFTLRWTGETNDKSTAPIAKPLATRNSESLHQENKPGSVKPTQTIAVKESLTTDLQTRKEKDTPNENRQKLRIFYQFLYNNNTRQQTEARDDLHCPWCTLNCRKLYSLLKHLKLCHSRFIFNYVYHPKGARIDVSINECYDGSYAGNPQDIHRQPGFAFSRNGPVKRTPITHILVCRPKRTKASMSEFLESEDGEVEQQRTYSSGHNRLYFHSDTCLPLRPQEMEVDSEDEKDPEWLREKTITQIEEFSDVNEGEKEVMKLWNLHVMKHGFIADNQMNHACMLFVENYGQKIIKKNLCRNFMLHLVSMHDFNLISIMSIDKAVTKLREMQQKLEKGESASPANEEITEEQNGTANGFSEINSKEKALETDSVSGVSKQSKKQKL

Sequence of GLP (G9a-like protein, EHMT1) (Q9H9B1 whole entry): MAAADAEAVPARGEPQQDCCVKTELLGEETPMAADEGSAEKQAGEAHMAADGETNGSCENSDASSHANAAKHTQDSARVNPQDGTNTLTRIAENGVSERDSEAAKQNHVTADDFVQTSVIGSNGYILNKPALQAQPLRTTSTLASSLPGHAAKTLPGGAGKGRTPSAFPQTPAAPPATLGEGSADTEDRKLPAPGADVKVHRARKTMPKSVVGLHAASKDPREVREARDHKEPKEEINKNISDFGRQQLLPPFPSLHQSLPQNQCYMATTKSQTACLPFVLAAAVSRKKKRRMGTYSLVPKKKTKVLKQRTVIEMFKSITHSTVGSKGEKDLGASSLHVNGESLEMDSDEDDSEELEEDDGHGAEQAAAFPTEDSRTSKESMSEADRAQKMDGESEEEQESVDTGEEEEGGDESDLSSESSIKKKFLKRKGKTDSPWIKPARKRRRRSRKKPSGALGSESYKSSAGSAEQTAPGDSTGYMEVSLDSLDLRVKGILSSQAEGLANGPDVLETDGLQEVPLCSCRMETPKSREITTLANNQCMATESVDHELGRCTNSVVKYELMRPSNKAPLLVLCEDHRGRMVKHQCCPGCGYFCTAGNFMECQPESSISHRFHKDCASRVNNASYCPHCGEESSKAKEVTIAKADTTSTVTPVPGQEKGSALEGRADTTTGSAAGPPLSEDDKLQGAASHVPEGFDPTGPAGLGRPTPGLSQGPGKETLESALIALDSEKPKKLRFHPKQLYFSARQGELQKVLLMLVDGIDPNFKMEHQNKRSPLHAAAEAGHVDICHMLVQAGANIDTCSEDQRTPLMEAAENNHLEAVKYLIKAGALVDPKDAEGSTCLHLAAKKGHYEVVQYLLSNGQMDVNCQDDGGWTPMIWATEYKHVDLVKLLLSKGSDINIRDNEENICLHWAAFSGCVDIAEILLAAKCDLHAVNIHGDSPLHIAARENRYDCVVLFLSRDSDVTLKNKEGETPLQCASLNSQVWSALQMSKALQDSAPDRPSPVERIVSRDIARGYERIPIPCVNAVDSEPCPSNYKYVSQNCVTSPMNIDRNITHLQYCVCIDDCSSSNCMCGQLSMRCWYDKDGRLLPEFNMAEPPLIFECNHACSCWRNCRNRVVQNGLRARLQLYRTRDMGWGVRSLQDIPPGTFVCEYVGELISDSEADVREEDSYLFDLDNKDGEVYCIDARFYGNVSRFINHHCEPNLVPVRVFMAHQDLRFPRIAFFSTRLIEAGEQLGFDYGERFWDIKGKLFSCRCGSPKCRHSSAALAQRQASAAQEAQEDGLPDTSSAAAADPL
Sequence of G9a (Q96KQ7 whole entry): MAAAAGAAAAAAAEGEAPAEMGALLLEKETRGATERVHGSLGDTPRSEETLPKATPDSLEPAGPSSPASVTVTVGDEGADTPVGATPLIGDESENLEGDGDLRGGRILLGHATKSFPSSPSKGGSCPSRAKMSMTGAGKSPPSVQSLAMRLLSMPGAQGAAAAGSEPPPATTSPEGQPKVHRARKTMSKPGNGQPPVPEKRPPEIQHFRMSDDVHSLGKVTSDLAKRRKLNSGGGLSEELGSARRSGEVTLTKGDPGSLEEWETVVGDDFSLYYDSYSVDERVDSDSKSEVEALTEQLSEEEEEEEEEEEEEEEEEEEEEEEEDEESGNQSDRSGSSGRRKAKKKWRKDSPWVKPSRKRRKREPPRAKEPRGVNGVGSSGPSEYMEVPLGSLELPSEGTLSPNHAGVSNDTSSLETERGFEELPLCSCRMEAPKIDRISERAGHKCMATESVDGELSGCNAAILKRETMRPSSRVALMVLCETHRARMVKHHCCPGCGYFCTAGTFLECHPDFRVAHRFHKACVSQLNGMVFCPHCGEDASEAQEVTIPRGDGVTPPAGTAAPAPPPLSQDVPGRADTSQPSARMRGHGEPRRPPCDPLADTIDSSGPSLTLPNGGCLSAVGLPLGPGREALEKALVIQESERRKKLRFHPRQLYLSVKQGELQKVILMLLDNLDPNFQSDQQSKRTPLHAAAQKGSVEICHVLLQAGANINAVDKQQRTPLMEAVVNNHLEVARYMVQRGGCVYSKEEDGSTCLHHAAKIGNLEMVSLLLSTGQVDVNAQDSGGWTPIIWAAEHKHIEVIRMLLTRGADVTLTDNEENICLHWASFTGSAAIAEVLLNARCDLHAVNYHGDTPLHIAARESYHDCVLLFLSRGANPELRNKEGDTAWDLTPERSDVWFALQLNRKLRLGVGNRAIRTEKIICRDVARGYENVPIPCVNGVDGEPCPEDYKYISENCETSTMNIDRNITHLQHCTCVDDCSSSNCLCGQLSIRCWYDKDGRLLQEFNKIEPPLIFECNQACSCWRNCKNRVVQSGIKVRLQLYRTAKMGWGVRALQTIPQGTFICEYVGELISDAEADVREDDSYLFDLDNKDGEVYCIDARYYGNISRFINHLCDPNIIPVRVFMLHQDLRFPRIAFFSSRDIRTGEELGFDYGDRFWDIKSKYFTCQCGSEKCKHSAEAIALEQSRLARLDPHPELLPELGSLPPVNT

| Structure (SMILES) | N-1 protonated form [1] [%] | activity against GLP (in words) [2] | G9a inhibitory activity (in words) (G9a) | activity against all other methyltransferases in the panel (in words) [3] | activity against SETD2 (in words) (SETD2) | activity against EZH2 (in words) (EZH2) |
| --- | --- | --- | --- | --- | --- | --- |
| COc1cc2nc(N3CCCN(C)CC3)nc(NC3CCN(Cc4ccccc4)CC3)c2cc1OC [Compound 1, BIX-01294, reference compound] | 8.0 | dual G9a/GLP activity | – | – | – | – |
| COc1cc2nc(N3CCCN(C)CC3)cc(NC3CCN(Cc4ccccc4)CC3)c2cc1OC [Compound 41] | 96.9 | equipotent against G9a and GLP | significant activity | inactive | moderate inhibitory activity | moderate inhibitory activity |
| COc1cc2nc(N3CCN(C)CC3)cc(NC3CCN(Cc4ccccc4)CC3)c2cc1OC [Compound 42] | – | equipotent against G9a and GLP | significant activity | inactive | moderate inhibitory activity | moderate inhibitory activity |
